System: human keratinocytes
Type: cell-based
Details: 0.3 µM with 500 µM carvacrol, 24 h
Description: Figure 5 Alpha-mangostin (α-MG) inhibited carvacrol-induced cytokine release in NHEK cells and rescued carvacrol-induced cell death. (A) Alpha-mangostin inhibited the carvacrol-induced release of IL-8 and IL-6 in NHEK. Cells were induced by 300 µM carvacrol with or without either 1 µM alpha-mangostin or 10 µM 74a for 24 h before the ELISA assay. (B) Alpha-mangostin reduced cell death caused by carvacrol in human keratinocytes. Cells were induced by 500 µM carvacrol with or without either 0.3 µM alpha-mangostin or 10 µM 74a for 24 h. The optical density (O.D.) values were normalized to those of the untreated cells. Data are shown as means ± SEM. **** p < 0.0001.
Strong activation of TRPV3 in keratinocytes by carvacrol at concentrations higher than 300 µM was reported to cause cell death. Therefore, we examined the effect of alpha-mangostin in keratinocytes exposed to 500 µM carvacrol.
The cell counting kit-8 (CCK8; Dojindo Laboratories, Kumamoto, Japan) was employed for viability assay. Keratinocytes (10^4 cells/well) plated in 96-well plates were incubated for about one day before exposing them to alpha-mangostin for 24 h. […] The optical density (O.D., 450 nm) of each well was measured after incubating the cells with CCK-8 solution ([…]) for 2 h. […]

COc1c(O)cc2oc3cc(O)c(CC=C(C)C)c(O)c3c(=O)c2c1CC=C(C)C [Alpha-mangostin]
Effect on carvacrol-induced decrease of cell viability: significantly reversed
